Test results reported in patent US12673954B2 (BRISTOL-MYERS SQUIBB COMPANY, priority 2021, dated 2026).
Read-outs that look alike come from different tables or passages of the source.

How the values were obtained:
[1] = test system: IRF pathway, THP1-Dual™ cells; test: STING reporter assay in THP1-Dual cells, IRF pathway (Lucia luciferase, QUANTI-Luc); format: cell-based, human; conditions: THP1-Dual cells, 10% human plasma, 20 hours, Lucia luciferase, 100% activation = 100 μM cGAMP, read-out: IRF (EC50 μM)
How it was run: (§1)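 THP-1-derived dual-reporter cells treated with serially diluted compounds (final top concentration 100 μM) for 20 h at 37° C. NF-κB read as SEAP via QUANTI-Blue at OD620; IRF read as Lucia luminescence via QUANTI-Luc after 5 min. 100% activation set by 100 μM cGAMP, baseline by DMSO.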

[2] = test system: NF-κB pathway, THP1-Dual™ cells; test: STING reporter assay in THP1-Dual cells, NF-κB pathway (SEAP, QUANTI-Blue); format: cell-based, human; conditions: THP1-Dual cells, 10% human plasma, 20 hours, SEAP, 100% activation = 100 μM cGAMP, read-out: NFkB (EC50 μM)
How it was run: as §1

| SMILES | EC50 ([1]; Homo sapiens, THP1-Dual, 20 h) [µM] | EC50 ([2]; Homo sapiens, THP1-Dual, 20 h) [µM] | EC50 [1] [µM] | EC50 [2] [µM] |
| --- | --- | --- | --- | --- |
| CC(OC(=O)c1cc(F)cc2cc(CNC(=O)c3cnc4cccnn34)oc12)C(F)(F)F (single isomer, unassigned) [EXAMPLE 315, 1,1,1-Trifluoropropan-2-yl 5-fluoro-2-((imidazo[1,2-b]pyridazine-3-carboxamido)methyl)benzofuran-7-carboxylate] | – | – | 2.1 | 1.9 |
| C[C@H](NC(=O)c1cnn2cccnc12)c1cc2cc(Cl)cc(C(=O)OCC(F)(F)F)c2o1 [EXAMPLE 266, 2,2,2-Trifluoroethyl (S)-5-chloro-2-(1-(pyrazolo[1,5-a]pyrimidine-3-carboxamido)ethyl)benzofuran-7-carboxylate] | 3.1 | 2.6 | – | – |
| O=C(OC1CC(F)(F)C1)c1cc(F)cc2cc(CNC(=O)c3cnn4cccnc34)oc12 [EXAMPLE 236, 3,3-Difluorocyclobutyl 5-fluoro-2-((pyrazolo[1,5-a]pyrimidine-3-carboxamido)methyl)benzofuran-7-carboxylate] | 1.3 | 1.8 | – | – |
| O=C(Cc1cc(Br)cc2cc(CNC(=O)c3cnn4cccnc34)oc12)OCC(F)(F)F [EXAMPLE 270, 2,2,2-Trifluoroethyl 2-(5-bromo-2-((pyrazolo[1,5-a]pyrimidine-3-carboxamido)methyl)benzofuran-7-yl)acetate] | 30 | 36 | – | – |
| COC(=O)c1cccc2cc(Cn3ccc4[nH]ncc4c3=O)oc12 [EXAMPLE 19, Methyl 2-({4-oxo-1H,4H,5H-pyrazolo[4,3-c]pyridin-5-yl}methyl)-1-benzofuran-7-carboxylate] | 47 | 95 | – | – |
| CC(OC(=O)c1cc(F)c(F)c2cc(CNC(=O)c3cnn4cccnc34)oc12)C(F)(F)F (stereo not shown) [EXAMPLE 227, 1,1,1-Trifluoropropan-2-yl 4,5-difluoro-2-((pyrazolo[1,5-a]pyrimidine-3-carboxamido)methyl)benzofuran-7-carboxylate] | 3.8 | 4.2 | – | – |
| COC(=O)c1cc(Cl)cc2cc(CNC(=O)c3cncnc3OC)oc12 [Example 73, Methyl 5-chloro-2-((4-methoxypyrimidine-5-carboxamido)methyl)benzofuran-7-carboxylate] | 2.1 | 2.6 | – | – |
| Cc1cc(C(=O)O)c2oc(C(C)NC(=O)c3cnn4cccnc34)cc2c1 (racemic) [EXAMPLE 186, 5-Methyl-2-(1-(pyrazolo[1,5-a]pyrimidine-3-carboxamido)ethyl)benzofuran-7-carboxylic acid] | – | – | 84 | > 100 |
| Cc1cc(C(=O)O[C@H](C)C(F)(F)F)c2oc(C(C)NC(=O)c3cnn4cccnc34)c(Cl)c2c1 (stereo partly drawn) [EXAMPLE 304, (R)-1,1,1-Trifluoropropan-2-yl 3-chloro-5-methyl-2-(1-(pyrazolo[1,5-a]pyrimidine-3-carboxamido)ethyl)benzofuran-7-carboxylate] | 7.6 | 8.3 | – | – |
| COC(=O)c1cc(C)cc2cc(C(C)NC(=O)c3cnn4cccnc34)oc12 (racemic) [Example 96, Methyl 5-methyl-2-(1-(pyrazolo[1,5-a]pyrimidine-3-carboxamido)ethyl)benzofuran-7-carboxylate (racemic)] | 1.7 | 2 | – | – |
| O=C(NCc1cc2cc(Cl)cc(-c3nnn[nH]3)c2o1)c1cncc2cccnc12 [EXAMPLE 410, N-((5-Chloro-7-(1H-tetrazol-5-yl)benzofuran-2-yl)methyl)-1,6-naphthyridine-8-carboxamide] | 79 | > 100 | – | – |
| CC(OC(=O)c1cc(Cl)cc2cc(CN3CCc4ccncc4C3=O)oc12)C(F)(F)F (stereo not shown) [EXAMPLE 337, 1,1,1-Trifluoropropan-2-yl 5-chloro-2-((1-oxo-3,4-dihydro-2,7-naphthyridin-2(1H)-yl)methyl)benzofuran-7-carboxylate] | – | – | 9.8 | 13 |
| CCOC(OC(=O)c1cccc2cc(CN3CCc4ccncc4C3=O)oc12)C(F)(F)F (racemic) [EXAMPLE 210, 1-Ethoxy-2,2,2-trifluoroethyl 2-((1-oxo-3,4-dihydro-2,7-naphthyridin-2(1H)-yl)methyl)benzofuran-7-carboxylate] | 30 | 25 | – | – |

Second part, the compound after the results:

| EC50 ([1]; Homo sapiens, THP1-Dual, 20 h) [µM] | EC50 ([2]; Homo sapiens, THP1-Dual, 20 h) [µM] | EC50 [1] [µM] | EC50 [2] [µM] | SMILES |
| --- | --- | --- | --- | --- |
| 13 | 19 | – | – | CCOC(=O)c1c(C)ccc2cc(CNC(=O)c3cnn4cccnc34)oc12 [EXAMPLE 379, Ethyl 6-methyl-2-((pyrazolo[1,5-a]pyrimidine-3-carboxamido)methyl)benzofuran-7-carboxylate] |
| 0.9 | 1 | – | – | O=C(OCC(F)(F)F)c1ccc(Cl)c2cc(CNC(=O)c3cnn4cccnc34)oc12 [EXAMPLE 357, 2,2,2-Trifluoroethyl 4-chloro-2-((pyrazolo[1,5-a]pyrimidine-3-carboxamido)methyl)benzofuran-7-carboxylate] |
| 1.7 | 1.8 | – | – | COC(OC(=O)c1cc(Cl)cc2cc(CNC(=O)c3cnn4cccnc34)oc12)C(F)(F)F (single isomer, unassigned) [EXAMPLE 331, 2,2,2-Trifluoro-1-methoxyethyl 5-chloro-2-((pyrazolo[1,5-a]pyrimidine-3-carboxamido)methyl)benzofuran-7-carboxylate] |
| – | – | 4.7 | 5.5 | CC(OC(=O)c1cc(Cl)cc2cc(CNC(=O)c3cnn4cccnc34)oc12)C(F)(F)F (single isomer, unassigned) [EXAMPLE 330, 1,1,1-Trifluoropropan-2-yl 5-chloro-2-((pyrazolo[1,5-a]pyrimidine-3-carboxamido)methyl)benzofuran-7-carboxylate] |
| 1.8 | 1.4 | – | – | COC(OC(=O)c1cc(Br)cc2cc(CNC(=O)c3cnn4cccnc34)oc12)C(F)(F)F (single isomer, unassigned) [EXAMPLE 339, 2,2,2-Trifluoro-1-methoxyethyl 5-bromo-2-((pyrazolo[1,5-a]pyrimidine-3-carboxamido)methyl)benzofuran-7-carboxylate] |
| 4.7 | 3.4 | – | – | COC(=O)c1cc(C#N)cc2cc(CNC(=O)c3cnn4cccnc34)oc12 [EXAMPLE 105, Methyl 5-cyano-2-((pyrazolo[1,5-a]pyrimidine-3-carboxamido)methyl)benzofuran-7-carboxylate] |
| 2.4 | 2.5 | – | – | COC(OC(=O)c1cc(F)cc2cc(CNC(=O)c3cnn4cccnc34)oc12)C(F)(F)F (single isomer, unassigned) [EXAMPLE 319, 2,2,2-Trifluoro-1-methoxyethyl 5-fluoro-2-((pyrazolo[1,5-a]pyrimidine-3-carboxamido)methyl)benzofuran-7-carboxylate] |
| 0.8 | 0.91 | – | – | Cc1cc(C(=O)O[C@H](C)C(F)(F)F)c2oc(CNC(=O)c3cnn4cccnc34)cc2c1 [EXAMPLE 271, (R)-1,1,1-Trifluoropropan-2-yl 5-methyl-2-((pyrazolo[1,5-a]pyrimidine-3-carboxamido)methyl)-benzofuran-7-carboxylate] |
| 1.4 | 2 | – | – | COC(=O)c1c(F)ccc2cc(CNC(=O)c3cnn4cccnc34)oc12 [EXAMPLE 107, Methyl 6-fluoro-2-((pyrazolo[1,5-a]pyrimidine-3-carboxamido)methyl)benzofuran-7-carboxylate] |
| 0.53 | 0.77 | – | – | COC(=O)c1cc(F)cc2cc(CNC(=O)c3cnn4cccnc34)oc12 [EXAMPLE 35, Methyl 5-fluoro-2-((pyrazolo[1,5-a]pyrimidine-3 carboxamido)methyl)benzofuran-7-carboxylate] |
